One molecule from patent publication US12680075B2, “Immune cells derived from induced pluripotent stem cell” (THE CHILDREN'S MEDICAL CENTER CORPORATION, priority 2016, dated 2026) can be followed below.

SMILES strings stand for the structures.

Common to all, as to type: cell-based, human
In one data set the test system is 5F cells. Description: Colony-forming assays of 5F cells treated with GSK126. The following applies: 3 uM GSK126. As to the method:
Colony assays. After 14 days of respecification, 5×10^4 cells were plated into 3 ml of complete methylcellulose H3434 (StemCell Technologies) supplemented with 10 ng/ml IL6 (Peprotech), 10 ng/ml FLT3 (R&D), and 50 ng/ml TPO (R&D). The mixture was distributed into two 60 mm dishes and maintained in a humidified chamber for 14 days.
(§1) To dissect the importance of PRC2 in definitive hematopoietic potential, the inventors knocked down each component of PRC2 (2 shRNAs per gene) in 5F cells and assessed T cell differentiation. The inventors confirmed efficient knockdown by each shRNA (FIG. 3A). […] To validate this finding, the inventors used an […], GSK126, that has 150-fold higher selectivity for EZH2 over EZH1 (McCabe et al. 2012) (FIGS. 3G, 3I and 3J). […] To test the effect of EZH2 inhibition on T cell potential, the inventors generated definitive hemogenic endothelium (HE) from hPSCs with T lymphoid potential via inhibition of Activin/Nodal signaling at the early stage of mesoderm differentiation (Kennedy et al. 2012).

For another data set, the system named is EZH2 and EZH1. Nature of the data set: Total H3K27me3 protein levels in 5F cells treated with GSK126. As to the method:
At 3 uM, protein levels of total H3K27me3 begins to decrease relative to DMSO control, indicating effective dose for EZH2 and EZH1 inhibition.
as §1

The test system of data set [1] is CD34+ d9 hemogenic endothelial (HE) cells. Description: T cell potential of CD34+ d9 hemogenic endothelial cells treated with GSK126. The following applies: 3 uM GSK126 vs DMSO-treated cells.
From the text: as §1

Turning to `CC[C@H](C)n1cc(C)c2c(C(=O)NCc3c(C)cc(C)[nH]c3=O)cc(-c3ccc(N4CCNCC4)nc3)cc21` [GSK126], the “toxicity as assessed by colony-forming assays” value with 5F cells is given as “partial toxicity”. In addition, in the data set with EZH2 and EZH1 (3 uM GSK126, 5F cells), the “global H3K27me3” value was “markedly reduced”. For the same molecule, the “concentration at which total H3K27me3 begins to decrease relative to DMSO control (effective dose for EZH2 and EZH1 inhibition)” value in the data set with EZH2 and EZH1 (5F cells) amounted to 3 µM. Besides, the “EZH2 and EZH1 enzymatic activity as monitored by total protein levels of H3K27me3” value in the data set on EZH2 and EZH1 (increasing concentration of GSK126, 5F cells) is reported as “dose-dependent decrease”. In addition, the “CD4+CD8+ T cell population” value in data set [1] was “abrogated”.
